{
  "source": "PubChem BioAssay (NCI)",
  "test_in_all_cases": "NCI tumour cell line growth inhibition, 48 h",
  "key": {"HL-60(TB) leukemia": {"test_system": "HL-60(TB) leukemia"}, "TK-10 renal": {"test_system": "TK-10 renal"}, "SW-620 colon": {"test_system": "SW-620 colon"}, "OVCAR-8 ovarian": {"test_system": "OVCAR-8 ovarian"}, "LOX IMVI melanoma": {"test_system": "LOX IMVI melanoma"}, "DU-145 prostate": {"test_system": "DU-145 prostate"}, "IGROV1 ovarian": {"test_system": "IGROV1 ovarian"}, "KM12 colon": {"test_system": "KM12 colon"}, "OVCAR-4 ovarian": {"test_system": "OVCAR-4 ovarian"}, "OVCAR-5 ovarian": {"test_system": "OVCAR-5 ovarian"}, "HCT-116 colon": {"test_system": "HCT-116 colon"}, "SK-MEL-28 melanoma": {"test_system": "SK-MEL-28 melanoma"}, "UACC-62 melanoma": {"test_system": "UACC-62 melanoma"}, "SN12C renal": {"test_system": "SN12C renal"}, "MOLT-4 leukemia": {"test_system": "MOLT-4 leukemia"}, "HCC-2998 colon": {"test_system": "HCC-2998 colon"}, "NCI-H23 lung": {"test_system": "NCI-H23 lung"}, "SF-295 CNS": {"test_system": "SF-295 CNS"}, "RXF 393 renal": {"test_system": "RXF 393 renal"}, "MCF7 breast": {"test_system": "MCF7 breast"}, "SR leukemia": {"test_system": "SR leukemia"}, "SF-539 CNS": {"test_system": "SF-539 CNS"}, "HOP-92 NSCLC": {"test_system": "HOP-92 NSCLC"}, "OVCAR-3 ovarian": {"test_system": "OVCAR-3 ovarian"}, "CAKI-1 renal": {"test_system": "CAKI-1 renal"}, "U251 CNS": {"test_system": "U251 CNS"}, "SF-268 CNS": {"test_system": "SF-268 CNS"}, "HT29 colon": {"test_system": "HT29 colon"}, "NCI-H522 lung": {"test_system": "NCI-H522 lung"}},
  "note": "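In this assay, cells in 96-well plates receive the compound at five concentrations for 48 hours. Endpoints are linearly interpolated between the surrounding concentrations. GI50 = concentration required for 50% inhibition of growth. The concentration for full growth arrest is given as TGI.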",
  "data": [
    {"smiles": "O=C(Nc1cccc(-c2cccc(F)c2)c1)C1CCN(Cc2cccc3cccnc23)CC1", "values": [
      {"measurement": "TGI", "setting": "HL-60(TB) leukemia", "value": 4.2, "unit": "µM"},
      {"measurement": "GI50", "setting": "TK-10 renal", "value": 4.3, "unit": "µM"},
      {"measurement": "TGI", "setting": "TK-10 renal", "value": 16.7, "unit": "µM"},
      {"measurement": "GI50", "setting": "SW-620 colon", "value": 1.71, "unit": "µM"},
      {"measurement": "TGI", "setting": "SW-620 colon", "value": 3.57, "unit": "µM"},
      {"measurement": "GI50", "setting": "OVCAR-8 ovarian", "value": 3.53, "unit": "µM"},
      {"measurement": "TGI", "setting": "OVCAR-8 ovarian", "value": 13.8, "unit": "µM"},
      {"measurement": "GI50", "setting": "LOX IMVI melanoma", "value": 1.59, "unit": "µM"},
      {"measurement": "TGI", "setting": "LOX IMVI melanoma", "value": 3.12, "unit": "µM"},
      {"measurement": "GI50", "setting": "DU-145 prostate", "value": 4.36, "unit": "µM"},
      {"measurement": "TGI", "setting": "DU-145 prostate", "value": 15.6, "unit": "µM"},
      {"measurement": "GI50", "setting": "IGROV1 ovarian", "value": 2.1, "unit": "µM"},
      {"measurement": "TGI", "setting": "IGROV1 ovarian", "value": 4.74, "unit": "µM"},
      {"measurement": "GI50", "setting": "KM12 colon", "value": 3.16, "unit": "µM"},
      {"measurement": "TGI", "setting": "KM12 colon", "value": 10.3, "unit": "µM"},
      {"measurement": "GI50", "setting": "OVCAR-4 ovarian", "value": 3.57, "unit": "µM"},
      {"measurement": "TGI", "setting": "OVCAR-4 ovarian", "value": 14.1, "unit": "µM"},
      {"measurement": "GI50", "setting": "OVCAR-5 ovarian", "value": 2.93, "unit": "µM"},
      {"measurement": "TGI", "setting": "OVCAR-5 ovarian", "value": 11.8, "unit": "µM"},
      {"measurement": "GI50", "setting": "HCT-116 colon", "value": 1.71, "unit": "µM"},
      {"measurement": "TGI", "setting": "HCT-116 colon", "value": 3.08, "unit": "µM"},
      {"measurement": "GI50", "setting": "SK-MEL-28 melanoma", "value": 1.82, "unit": "µM"},
      {"measurement": "TGI", "setting": "SK-MEL-28 melanoma", "value": 3.57, "unit": "µM"},
      {"measurement": "GI50", "setting": "UACC-62 melanoma", "value": 1.73, "unit": "µM"},
      {"measurement": "TGI", "setting": "UACC-62 melanoma", "value": 3.28, "unit": "µM"},
      {"measurement": "GI50", "setting": "SN12C renal", "value": 1.97, "unit": "µM"},
      {"measurement": "TGI", "setting": "SN12C renal", "value": 4.83, "unit": "µM"},
      {"measurement": "GI50", "setting": "MOLT-4 leukemia", "value": 1.66, "unit": "µM"},
      {"measurement": "TGI", "setting": "MOLT-4 leukemia", "value": 4.77, "unit": "µM"},
      {"measurement": "GI50", "setting": "HCC-2998 colon", "value": 1.77, "unit": "µM"},
      {"measurement": "TGI", "setting": "HCC-2998 colon", "value": 3.29, "unit": "µM"},
      {"measurement": "GI50", "setting": "NCI-H23 lung", "value": 3.16, "unit": "µM"},
      {"measurement": "TGI", "setting": "NCI-H23 lung", "value": 13, "unit": "µM"},
      {"measurement": "GI50", "setting": "SF-295 CNS", "value": 1.8, "unit": "µM"},
      {"measurement": "TGI", "setting": "SF-295 CNS", "value": 3.6, "unit": "µM"},
      {"measurement": "GI50", "setting": "RXF 393 renal", "value": 1.57, "unit": "µM"},
      {"measurement": "TGI", "setting": "RXF 393 renal", "value": 3.47, "unit": "µM"},
      {"measurement": "GI50", "setting": "MCF7 breast", "value": 1.8, "unit": "µM"},
      {"measurement": "TGI", "setting": "MCF7 breast", "value": 4.16, "unit": "µM"},
      {"measurement": "GI50", "setting": "SR leukemia", "value": 1.66, "unit": "µM"},
      {"measurement": "TGI", "setting": "SR leukemia", "value": 4.46, "unit": "µM"},
      {"measurement": "GI50", "setting": "SF-539 CNS", "value": 1.8, "unit": "µM"},
      {"measurement": "TGI", "setting": "SF-539 CNS", "value": 3.56, "unit": "µM"},
      {"measurement": "GI50", "setting": "HOP-92 NSCLC", "value": 2.03, "unit": "µM"},
      {"measurement": "TGI", "setting": "HOP-92 NSCLC", "value": 7.22, "unit": "µM"},
      {"measurement": "GI50", "setting": "OVCAR-3 ovarian", "value": 3.51, "unit": "µM"},
      {"measurement": "TGI", "setting": "OVCAR-3 ovarian", "value": 13.2, "unit": "µM"},
      {"measurement": "GI50", "setting": "CAKI-1 renal", "value": 1.96, "unit": "µM"},
      {"measurement": "TGI", "setting": "CAKI-1 renal", "value": 4.07, "unit": "µM"},
      {"measurement": "GI50", "setting": "U251 CNS", "value": 1.85, "unit": "µM"},
      {"measurement": "TGI", "setting": "U251 CNS", "value": 3.73, "unit": "µM"},
      {"measurement": "GI50", "setting": "SF-268 CNS", "value": 4.05, "unit": "µM"},
      {"measurement": "TGI", "setting": "SF-268 CNS", "value": 16.1, "unit": "µM"},
      {"measurement": "GI50", "setting": "HT29 colon", "value": 1.51, "unit": "µM"},
      {"measurement": "TGI", "setting": "HT29 colon", "value": 3.17, "unit": "µM"},
      {"measurement": "GI50", "setting": "NCI-H522 lung", "value": 2.16, "unit": "µM"},
      {"measurement": "TGI", "setting": "NCI-H522 lung", "value": 5.1, "unit": "µM"}
    ]}
  ]
}
